The compounds below were run on Haemonchus contortus (assay: Method A: screening of compounds against Haemonchus contortus L1 larvae in microtitre plate (development to L3)). Settings: 96 h, test concentration 0.01 ppm, 4 days assessment, 27° C., read-out: motility inhibition.
Description: Method A: Screening Method to Test Activity of Compounds Against Haemonchus contortus. Twenty L1 Haemonchus contortus larvae were added to wells of a microtitre plate containing a nutrient medium and the test compound in DMSO. The microtitre plate was then held at 27° C. where the L1 larvae were allowed to develop. An analysis was conducted at 4 days to determine successful development to the L3 stage. Larvae exposed to DMSO and no test compound served as controls. Compounds numbers 3, 4, 6 and 8 gave at least 90% motility inhibition at a test concentration of 0.15 ppm at the 4 days assessment. Compounds numbers 1, 2, 5 and 7 gave at least 90% motility inhibition at a test concentration of 0.01 ppm at the 4 days assessment.
For CC(COc1cc(C#N)ccc1C(F)(F)F)(NC(=O)c1ccc(OC(F)(F)F)cc1)C(N)=S (stereo not drawn) [Compound 7, N-[2-(5-Cyano-2-trifluoromethylphenoxy)-1-methyl-1-thiocarbamoyl-ethyl]-4-trifluoromethoxybenzamide], the inhibition at 0.01 ppm was no less than 90%. CC(Cn1nc2c(Cl)cc(Cl)c(Cl)c2n1)(NC(=O)c1ccc(OC(F)(F)F)cc1)C(N)=S (stereo not drawn) [Compound 1, N-[1-Methyl-1-thiocarbamoyl-2-(4,5,7-trichloro-2H-benzotriazol-2-yl)-ethyl]-4-trifluoromethoxybenzamide] was tested, and the inhibition at 0.01 ppm was no less than 90%. In the case of CC(COc1cc(C#N)ccc1C(F)(F)F)(NC(=O)c1ccc(SC(F)(F)F)cc1)C(N)=S (stereo not drawn) [Compound 5], the inhibition at 0.01 ppm is reported as no less than 90%. With CC(Cn1nc2c(Cl)cc(Cl)c(Cl)c2n1)(NC(=O)c1ccc(SC(F)(F)F)cc1)C(N)=S (stereo not drawn) [Compound 2] the inhibition at 0.01 ppm was no less than 90%.

Same assay, conditions: 96 h, test concentration 0.15 ppm, 4 days assessment, 27° C., read-out: motility inhibition
CC(COc1cc(C(N)=S)ccc1C(F)(F)F)(NC(=O)c1ccc(OC(F)(F)F)cc1)C(N)=S (stereo not drawn) [Compound 8] showed an inhibition at 0.15 ppm of no less than 90%. In the case of CC(COc1ccc(C#N)cc1C(F)(F)F)(NC(=O)c1ccc(OC(F)(F)F)cc1)C(N)=S (stereo not drawn) [Compound 3, N-[2-(4-Cyano-2-trifluoromethylphenoxy)-1-methyl-1-thiocarbamoyl-ethyl]-4-trifluoromethoxybenzamide], the inhibition at 0.15 ppm is reported as no less than 90%. With CC(COc1cc(C(N)=S)ccc1C(F)(F)F)(NC(=O)c1ccc(SC(F)(F)F)cc1)C(N)=S (stereo not drawn) [Compound 6] the inhibition at 0.15 ppm was no less than 90%. In the case of CC(COc1ccc(C(N)=S)cc1C(F)(F)F)(NC(=O)c1ccc(OC(F)(F)F)cc1)C(N)=S (stereo not drawn) [Compound 4, N-[1-Methyl-1-thiocarbamoyl-2-(4-thiocarbamoyl-2-trifluoromethylphenoxy)-ethyl]-4-trifluoromethoxybenzamide], the inhibition at 0.15 ppm is reported as no less than 90%.

The compounds below were run on Haemonchus contortus (assay: Method B: screening against Haemonchus contortus in vivo on Mongolian jirds (Meriones unguiculatus)). Settings: oral gavage, dose as low as 1 or 10 mg/kg, necropsy 3 days after treatment, vs placebo control group.
Description: Method B: Screening Method to Test Activity of Compounds Against Haemonchus contortus in Vivo on Mongolian Jirds (Meriones unguiculatus). Mongolian jirds, at least five weeks old, were immunosuppressed and artificially infected with ca. 1000 ensheathed Haemonchus contortus third instar larvae. Six days after infection, the jirds were treated by oral gavage with the test compounds, dissolved in a mixture of 2 parts DMSO and 1 part polyethylene glycol (PEG400), at doses of 100 mg/kg and 10 mg/kg. Jirds treated only with the placebo (2 parts DMSO and 1 part PEG400) served as controls. On day 9 (3 days after treatment) the jirds were euthanized and necropsied for recovery of parasites from the stomach. Efficacy was calculated as the average % reduction in the number of worms in each test group compared with the average number of worms from the control group. […] Compound number 1, provided at least 95% reduction in nematode infestation at a dose as low as 1 or 10 mg/kg.
With CC(Cn1nc2c(Cl)cc(Cl)c(Cl)c2n1)(NC(=O)c1ccc(OC(F)(F)F)cc1)C(N)=S (stereo not drawn) [Compound 1, N-[1-Methyl-1-thiocarbamoyl-2-(4,5,7-trichloro-2H-benzotriazol-2-yl)-ethyl]-4-trifluoromethoxybenzamide] the “reduction in nematode infestation” value was “at least 95%”.

From patent publication US7964621B2, “Thioamide compounds, method of making and method of using thereof” (Merial Limited, priority 2008, dated 2011)
